From PubChem BioAssay (NCI) come the findings set out here.

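The compound was tested at five concentrations on cells cultured in 96-well plates, with a 48-hour exposure period. GI50: concentration for 50% inhibition of growth. TGI marks complete inhibition of growth.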 A value given as a limit tells only on which side of the number the result lay.

Some test systems named below: K-562 leukemia; M14 melanoma; SK-OV-3 ovarian; SF-539 CNS; HOP-62 NSCLC; OVCAR-8 ovarian; A498 renal; CAKI-1 renal; HT29 colon; RPMI-8226 leukemia.
Test in all cases: NCI anticancer screen, dose series, 48 h

On to `Cc1c(Cl)cccc1Nc1ncccc1C(=O)O`, for which the GI50 with K-562 leukemia was 62.7 µM; with M14 melanoma it was over 100 µM; with SK-OV-3 ovarian, over 100 µM; in the test with SF-539 CNS it was 77.2 µM; with HOP-62 NSCLC it was over 100 µM; with OVCAR-8 ovarian, over 100 µM. In addition, the GI50 is 34.3 µM in the test on A498 renal, 59 µM in the test with CAKI-1 renal, over 100 µM in the test on HT29 colon and 47.7 µM in the test with RPMI-8226 leukemia. Also, the TGI with K-562 leukemia, with M14 melanoma, in the test with SK-OV-3 ovarian, in the test with SF-539 CNS, with HOP-62 NSCLC and with OVCAR-8 ovarian was over 100 µM throughout. Also, the TGI with A498 renal, in the test on CAKI-1 renal, in the test on HT29 colon and in the test on RPMI-8226 leukemia was over 100 µM each time.
